≈ marks a conversion by molar mass, not a printed value. Read-outs that look alike come from different tables or passages of the source. Non-standard residues stand in square brackets, D forms with d. Residues, ends and D or L forms follow the SMILES beside them. Hyp = O=C(O)[C@@H]1C[C@@H](O)CN1

For data set [1], the system named is NA. The settings on record: cited from earlier work.
From the text: (§1) To determine the mode of action of the NA-inhibitory peptide, a Lineweaver–Burk kinetic model was used to explore the relationship between the reaction rate and the substrate concentration.
In data set [2] the test system is NA. The settings on record: no reference given; cited from earlier work.
From the text: as §1
Data set [3] relates to pepsin, chymotrypsin, trypsin. The data set can be described thus: Simulated in vitro gastrointestinal digestion, NA inhibition read-out. It is filed as in vitro ADME. The settings on record: 10 mg/mL, pepsin pH 2.0, 37 °C, 2 h, then chymotrypsin pH 7.5, 37 °C, 1 h, three replicates. How it is done:
Simulated digestion assay was performed according to the previous method with slight modifications. The NA-inhibitory peptide was dissolved in deionized water to prepare 10 mg/mL solution. The pH was adjusted to 2.0 with 1 mol/L HCl and then pepsin (2.86% of the substrate, dry basis) was added. Digestion was performed at 37 °C for 2 h, followed by boiling for 10 min to stop the enzyme activation. Subsequently, the pH was adjusted to 7.5 with 0.2 mol/L NaOH. After adding chymotrypsin (4.00% of substrate, dry basis), the reaction was carried out at 37 °C for 1 h. The sample was submerged in a 95 °C water bath for 10 min to terminate the enzymatic digestion and cooled on ice to room temperature. Then, trypsin (4.00% of substrate, dry basis) was added, and the above steps were repeated. Afterwards, the digested mixtures were centrifuged at 10,000× g for 10 min to obtain the digestive juices. The NA inhibition assay in digestive juices was detected as described above.

The test system of data set [4] is influenza virus A/Puerto Rico/8/1934 (H1N1) in MDCK cells.
In data set [5] the test system is MDCK cells. The data set can be described thus: Cytotoxicity test by MTT assay. It is filed as cell-based, canine. The settings on record: 48 h. On the procedure:
The MTT assay was used to determine the effect of the peptide on the viability of MDCK cells. The 96-well plates were used to culture the MDCK cells. After adding 10 μL of PBS containing MTT (0.5 mg/mL) into each well, the solution was incubated at 37 °C for 4 h. After removing the supernatant, 200 μL of DMSO was added into each well. The optical density (OD) for each well was determined at 570 nm. The IC50 was calculated as the concentration of the sample at which the number of viable cells was decreased to 50% of that in the cell control.

Data set [6] concerns influenza virus A/Puerto Rico/8/1934 (H1N1) in MDCK cells. The source holds these as a separate data set.
The subject of data set [7] is influenza virus H1N1 (HA titer, chicken red blood cells). Set-up: species or system influenza A H1N1 virus.
Data set [8] deals with T1, Influenza virus H1N1 neuraminidase (NA) (Influenza A virus, UniProt P03468). In kind it is biochemical. The settings on record: relative to hydrolysates (<5000 Da), from the IC50 values.
T1 sequence (P03468 whole entry, looked up): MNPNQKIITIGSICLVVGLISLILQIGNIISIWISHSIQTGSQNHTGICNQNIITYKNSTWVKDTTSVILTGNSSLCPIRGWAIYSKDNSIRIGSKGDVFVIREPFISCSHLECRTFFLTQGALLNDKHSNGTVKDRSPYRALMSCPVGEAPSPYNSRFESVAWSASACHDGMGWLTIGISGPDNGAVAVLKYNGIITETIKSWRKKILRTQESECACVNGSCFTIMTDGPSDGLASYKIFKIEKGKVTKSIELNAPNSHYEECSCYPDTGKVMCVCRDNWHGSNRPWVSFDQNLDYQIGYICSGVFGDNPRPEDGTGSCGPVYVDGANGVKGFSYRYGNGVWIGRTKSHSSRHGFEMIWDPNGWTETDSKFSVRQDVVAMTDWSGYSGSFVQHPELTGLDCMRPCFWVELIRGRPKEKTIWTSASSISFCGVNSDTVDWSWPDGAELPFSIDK
Data set [9] has as its target T1, Influenza virus H1N1 neuraminidase (NA). Put plainly: NA inhibition mode, Lineweaver–Burk kinetics. It is filed as biochemical. The settings on record: Lineweaver–Burk plot. How it is done:
The mode of NA inhibition was determined according to the previous method with slight modifications. Various concentrations of MUNANA (1.25, 2.5, 5, 10 and 20 μM) were incubated with NA in the absence or presence (0–2.5 mg/mL) of the peptide P at 37 °C. The inhibition kinetics of NA in the presence of peptide P was determined based on the Lineweaver–Burk plot. The inhibitor constant Ki was calculated by plotting 1/Vmax versus the concentrations of peptide P.

Data set [10] has as its system ACE. The settings on record: cited from earlier work.
The mark [11] stands for this setting: influenza virus A/Puerto Rico/8/1934 in MDCK cells, 1 h, 250 μg/mL.

Broadly, the IC50 is the concentration needed to halve the response being measured. The Ki is a dissociation constant, usually derived from enzyme kinetics or from competition with a known ligand. Regarding “2-hydroxy-3-methyl-3-butenyl alkyl [HMB]”, the “Mode of NA inhibition” value in data set [1] was “non-competitive”. In data set [1] (read-out: IC50 for NA), the IC50 was 12.3 µM. Also, in [1] (read-out: Ki for NA), the inhibition constant (Ki) was 14 ± 1.5 µM.

In the case of `CCOC(=O)C1=C[C@@H](OC(CC)CC)[C@H](NC(C)=O)[C@@H](N)C1` [oseltamivir], the “Mode of NA inhibition” value in data set [2] is on record as “competitive”.

As to `CC(C)C[C@H](NC(=O)CNC(=O)[C@H](CCC(N)=O)NC(=O)[C@@H]1CCCN1C(=O)CNC(=O)[C@@H]1C[C@@H](O)CN1C(=O)[C@@H](NC(=O)CNC(=O)[C@@H]1C[C@@H](O)CN1C(=O)[C@@H]1CCCN1C(=O)CNC(=O)[C@H](C)NC(=O)[C@@H](NC(=O)CNC(=O)[C@H](C)NC(=O)[C@H](CCC(=O)O)NC(=O)CNC(=O)[C@H](CO)NC(=O)[C@@H]1CCCN1C(=O)CNC(=O)[C@H](CCCCN)NC(=O)[C@H](CCC(=O)O)NC(=O)CNC(=O)[C@@H]1C[C@@H](O)CN1)[C@@H](C)O)[C@@H](C)O)C(=O)O` [peptide P] (H-[Hyp]GEKGPSGEAGTAGP[Hyp]GT[Hyp]GPQGL-OH; N-terminus and C-terminus assumed), the “NA-inhibitory activity after simulated in vitro gastrointestinal digestion” value in data set [3] is given as “significantly decreased”. In addition, the “NA-inhibitory activity after simulated in vitro gastrointestinal digestion” value in [3] (listed as NA-inhibitory peptide) was “almost inactivated”. For the same compound, the “Effect on cytopathic effect (CPE)” value in [4] is “significantly reduced the cytopathic effect”. Besides, the “EC50 against H1N1” value in data set [4] (influenza virus A/Puerto Rico/8/1934 in MDCK cells, 48 h) worked out at 471 ± 12 µg/mL (≈ 218 µM). The “Inhibition of H1N1” value in data set [4] (influenza virus A/Puerto Rico/8/1934 in MDCK cells, 48 h, 250 μg/mL) was determined as 42%. The “Cytotoxicity in MDCK cells” value in [5] (concentration of 250 μg/mL or less (p > 0.05)) is “no significant cytotoxicity”. In addition, the “Viability of MDCK cells” value in [5] (concentrations over 250 μg/mL (p < 0.05)) was “significantly reduced the viability”. Further, the “Inhibition rate, added after the infection (after-adsorption)” value in data set [6] is recorded as “approximately 31.5%”. Moreover, in data set [6] (setting [11]), the “Inhibition ratio, during viral adsorption” value worked out at 58% and the “Inhibition ratio, pretreatment (added before viral adsorption)” value amounted to 73%. The “HA titer of the virus” value in data set [7] is “significantly reduce the virus titer”. For the same compound, in data set [8], the “Purification Fold” value was determined as 7.19. Moreover, the “Mode of NA inhibition” value in data set [9] is on record as “competitive”.

With `NC(=O)c1ncn([C@@H]2O[C@H](CO)[C@@H](O)[C@H]2O)n1` [ribavirin, Ribavirin, reference compound], the “Inhibition ratio, positive control” value in [6] (positive control in the time-of-addition experiment) is 75%.

Trp-Leu: the “ACE inhibitory activity after simulated digestion” value in [10] is “completely preserved”.

The values are drawn from article PMC6213599 (Marine Drugs, 2018).
